One data set concerns the target KIT (Homo sapiens, UniProt P10721). The note with it: cited from earlier work.
Setting [1] is: KIT wild-type, reference kinase inhibitors, from literature.

Molecules are shown by their SMILES. Like-named read-outs stand apart in the source and are kept apart here. Where only a bound is given, the exact number is not on record here.

A word on the Kd: it is a measure of binding affinity in units of concentration. A word on the melting point: it is the temperature of the solid-liquid transition.

Sequence of KIT (P10721 26-976): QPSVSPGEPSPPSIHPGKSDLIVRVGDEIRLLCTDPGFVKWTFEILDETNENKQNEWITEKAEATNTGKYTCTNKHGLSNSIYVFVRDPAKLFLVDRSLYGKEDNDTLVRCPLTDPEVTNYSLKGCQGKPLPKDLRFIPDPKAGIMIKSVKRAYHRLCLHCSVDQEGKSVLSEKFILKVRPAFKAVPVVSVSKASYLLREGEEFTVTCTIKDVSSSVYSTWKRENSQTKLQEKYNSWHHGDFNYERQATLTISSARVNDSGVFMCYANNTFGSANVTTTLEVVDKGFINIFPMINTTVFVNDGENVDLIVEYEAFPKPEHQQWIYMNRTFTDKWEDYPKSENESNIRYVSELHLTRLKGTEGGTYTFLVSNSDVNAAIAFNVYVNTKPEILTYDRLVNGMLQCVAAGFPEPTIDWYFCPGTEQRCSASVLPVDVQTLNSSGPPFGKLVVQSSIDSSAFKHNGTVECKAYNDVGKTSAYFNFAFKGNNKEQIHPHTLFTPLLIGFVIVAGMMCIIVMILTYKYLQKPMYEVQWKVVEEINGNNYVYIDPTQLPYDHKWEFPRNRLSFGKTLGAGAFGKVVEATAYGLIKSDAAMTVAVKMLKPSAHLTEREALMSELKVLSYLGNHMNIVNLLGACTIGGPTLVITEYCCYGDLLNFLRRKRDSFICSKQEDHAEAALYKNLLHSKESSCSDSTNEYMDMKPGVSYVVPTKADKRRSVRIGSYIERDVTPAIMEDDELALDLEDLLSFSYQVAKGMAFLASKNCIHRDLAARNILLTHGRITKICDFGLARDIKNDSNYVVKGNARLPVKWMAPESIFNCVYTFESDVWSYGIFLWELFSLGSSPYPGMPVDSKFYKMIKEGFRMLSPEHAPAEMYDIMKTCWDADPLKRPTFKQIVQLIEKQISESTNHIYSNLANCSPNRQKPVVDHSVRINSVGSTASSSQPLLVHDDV

As to `COCC(=O)NC/C=C/c1ccc2ncnc(Nc3ccc(Oc4ccc(C)nc4)c(C)c3)c2c1` [CP-724714], the Kd at KIT (setting [1]) was > 10000 nM.
`CCc1cnc(N2CCN(c3ncnc4ccccc34)CC2)nc1` [Compound 3, 4-(4-(5-ethylpyrimidin-2-yl)piperazin-1-yl)quinazoline]: the melting point is > 250 °C.
On the same count and under the same terms, the result for `CCc1cnc(N2CCN(c3nc(-c4ccccc4)nc4ccccc34)CC2)nc1` [Compound 5, 4-(4-(5-ethylpyrimidin-2-yl)piperazin-1-yl)-2-phenylquinazoline] reads 137 to 138 °C.
Molecule `c1ccc(Cc2cnc(N3CCN(c4nc(-c5ccccc5)nc5ccccc45)CC3)nc2)cc1` [Compound 6, 4-(4-(5-benzylpyrimidin-2-yl)piperazin-1-yl)-2-phenylquinazoline] came in with a melting point of 135 to 137 °C.
Same read-out and setting: the result for `CCc1cnc(N2CCN(C(=O)c3cccc(Nc4ncnc5ccccc45)c3)CC2)nc1` [Compound 13, (4-(5-ethylpyrimidin-2-yl)piperazin-1-yl)(3-(quinazolin-4-ylamino)phenyl)methanone] reads 146 to 147 °C; that for `CCc1cnc(N2CCN(C(=O)c3ccc(Nc4ncnc5ccccc45)cc3)CC2)nc1` [Compound 14, (4-(5-ethylpyrimidin-2-yl)piperazin-1-yl)(4-(quinazolin-4-ylamino)phenyl)methanone], 248 to 249 °C; that for `O=C(c1ccc(Nc2ncnc3ccccc23)cc1)N1CCN(c2ncc(Cc3ccccc3)cn2)CC1` [Compound 17, (4-(5-benzylpyrimidin-2-yl)piperazin-1-yl)(4-(quinazolin-4-ylamino)phenyl)methanone], 245 to 247 °C.
The same measure, in the same setting: the result for `O=C(c1ccc(CNc2ncnc3ccccc23)cc1)N1CCN(c2ncc(Cc3ccccc3)cn2)CC1` [Compound 18, (4-(5-benzylpyrimidin-2-yl)piperazin-1-yl)(4-((quinazolin-4-ylamino)methyl)phenyl)methanone] reads 99 to 101 °C.
Still for that read-out and setting: the result for `CCc1cnc(N2CCN(C(=O)c3ccccc3NC3=c4ccccc4=NCN3c3ccccc3)CC2)nc1` [Compound 19, (4-(5-ethylpyrimidin-2-yl)piperazin-1-yl)(2-(3-phenylquinazolin-4-ylamino)phenyl)methanone] reads 204 to 205 °C; that for `CCc1cnc(N2CCN(C(=O)c3ccccc3NC3(c4ccccc4)NC=Nc4ccccc43)CC2)nc1` (centres unmarked) [Compound 20, (4-(5-ethylpyrimidin-2-yl)piperazin-1-yl)(2-(4-phenylquinazolin-4-ylamino)phenyl)methanone], > 250 °C.
On to `CCc1cnc(N2CCN(C(=O)c3ccc(CNc4nc(-c5ccccc5)nc5ccccc45)cc3)CC2)nc1` [Compound 21, (4-(5-ethylpyrimidin-2-yl)piperazin-1-yl)(4-((2-phenylquinazolin-4ylamino)methyl)phenyl)methanone], for which the melting point is 207 to 208 °C.
In the case of `O=C(c1cccc(Nc2nc(-c3ccccc3)nc3ccccc23)c1)N1CCN(c2ncc(Cc3ccccc3)cn2)CC1` [Compound 22, (4-(5-benzylpyrimidin-2-yl)piperazin-1-yl)(3-(2-phenylquinazolin-4ylamino)phenyl)methanone], the melting point fell in the range of 214 to 215 °C.
The same measure, in the same setting: the result for `O=C(c1ccc(Nc2nc(-c3ccccc3)nc3ccccc23)cc1)N1CCN(c2ncc(Cc3ccccc3)cn2)CC1` [Compound 23, (4-(5-benzylpyrimidin-2-yl)piperazin-1-yl)(4-(2-phenylquinazolin-4ylamino)phenyl)methanone] reads > 250 °C; that for `O=C(c1ccc(CNc2nc(-c3ccccc3)nc3ccccc23)cc1)N1CCN(c2ncc(Cc3ccccc3)cn2)CC1` [Compound 24, (4-(5-benzylpyrimidin-2-yl)piperazin-1-yl)(4-((2-phenylquinazolin-4-ylamino)methyl)phenyl)methanone], 216 to 217 °C.
`CCOc1cc2ncc(C#N)c(Nc3ccc(F)c(Cl)c3)c2cc1NC(=O)/C=C/CN(C)C` [EKB-569]: the Kd on KIT (setting [1]) is > 10000 nM.
Consider `Oc1ccc(-c2nc(-c3ccc(F)cc3)c(-c3ccncc3)[nH]2)cc1` [SB-202190], for which the Kd at KIT (setting [1]) is > 10000 nM.
With `NC(=O)c1ccc(-c2nc(-c3ccccn3)c(-c3ccc4c(c3)OCO4)[nH]2)cc1` [SB-431542], the Kd at KIT is > 10000 nM.

Values taken from patent US8609672B2, “Piperazinylpyrimidine analogues as protein kinase inhibitors” (University of the Pacific, priority 2010, dated 2013).
